Assays:
[1] = test system: IL-2 secretion from Jurkat T cells; experiment: IL-2 secretion from activated Jurkat T cells (ELISA); type: cell-based, human; conditions: for IL-2 [ ]pg/ml (1) / IL-2 % Control (1): experiment (1); for IL-2 % Control (1) / IL-2 % Control (2) / IL-2 % Control (3): relative to DMSO 0.1%; for IL-2 [ ]pg/ml (2) / IL-2 % Control (2): experiment (2); for IL-2 [ ]pg/ml (3) / IL-2 % Control (3): experiment (3)
Method: The T cell line Jurkat 6.1 (ATCC) was used. Cells were pre-treated for 30 min with 1 μM or 10 μM of the respective compound and then stimulated with plate-bound anti-CD3 (BD Pharmingen) and anti-CD28 (AnCell). DMSO was used as vehicle control. The immunosuppressive agent Cyclosporine A was used as a control for inhibition of IL-2 production. After 24 hs the supernatant was collected and IL-2 secretion was measured by ELISA.
Jurkat T cells were cultured in RMPI-1640 medium containing 10 % Foetal Bovine Serum, Penicillin/Streptomycin and L-Glutamine in T-75cm2 flasks at 37° C. and 5 % CO2. Cells were seeded into new culture flasks at a density of 1-3×10^5 cells per ml and maintained at a density of 0.5−1×10^6 cells per ml.
(A) Anti-TCR/CD28-mediated activation of Jurkat cells: Experiments involving anti-TCR/CD28-mediated activation of Jurkat T lymphocytes were carried out on 24-well cell culture plates. The plates were coated with a 1/100 dilution of rabbit anti-mouse IgG in sterile PBS (1×) and incubated overnight at 4OC. Unbound antibody was aspirated and the wells were gently rinsed with warm sterile PBS. The PBS was aspirated and the wells were coated with a 1/100 dilution of anti-TCR antibody (OKT-3) and a 1/200 dilution of anti-CD28 antibody (both antibodies pre-mixed prior to addition to the plates) in sterile PBS. The plates were then incubated for 1-2 hours at 37° C. Unbound antibody was aspirated and the wells were gently rinsed with warm PBS. The PBS was left on the plate until the Jurkat cells were ready to be added to the plate. The Jurkat cells were harvested from the T-75cm2 cell culture flasks and resuspended at a density of 0.5×10^6 cells per ml. The compounds were dissolved at a specified stock concentration (see results section) and diluted to the required concentration by adding the drug to the cell suspension. The cells were then pre-incubated with the compounds or with an equivalent volume of drug vehicle control (DMSO) for 30 minutes prior to adding the cell suspension to the antibody-coated plates. Cyclosporine A (1 μM) was used as a positive control to inhibit IL-2 production from activated T cells and was preincubated with the 6 cells as described above in parallel. The cells were then incubated on the plates with the acti-TCR/CD28 antibodies for 24 hours at 37° C. and 5% CO2 in a humidified atmosphere. After 24 hours, the cell suspension was removed from the plates and the cells were pelleted by centrifugation. The cell culture supernatant was saved and analysed for secreted IL-2 by ELISA. The cell pellet was saved and cell viability was measured using Acridine Orange/Ethidium Bromide cell viability staining solution.
(B) PHA/PMA-mediated activation of Jurkat cells Jurkat cells were resuspended at a concentration of 0.5×10^6 cells per ml and the Pharmatrin compounds at the desired concentration or an equivalent volume of drug vehicle control (DMSO) were added to the cells and incubated for 30 minutes. Cyclosporine A (1 ∝M) was used as a positive control to inhibit IL-2 production from activated T cells and was preincubated with the cells as described above in parallel. PHA and PMA were added to the cell suspension (10 ∝g/ml and 10 ng/ml respectively) and the cells were plated onto uncoated 24-well plates. The cells were incubated on the plates for 24 hours at 37° C. and 5 % CO2 in a humidified atmosphere. After 24 hours, the cell suspension was removed from the plates and the cells were pelleted by centrifugation. The cell culture supernatant was saved and analysed for secreted IL-2 by ELISA.
The cell culture supernatants were analysed for IL-2 by ELISA (96-well plate format) using the Human IL-2 ELISA kit from R&D Systems Europe. This assay was carried out using the standard protocol outlined by the company. Samples and standards (recombinant human IL-2 provided by R&D Systems) were analysed in triplicate. […]

[2] = test system: Balb/C mice; experiment: 5% DSS-induced murine colitis model; type: in vivo, mouse; conditions: for inhibition of DAI in DSS-induced colitis: 5% DSS colitis (FIG. 9); for effect on DSS-induced weight loss: 5% DSS colitis, 30 mg/kg p.o. (FIG. 8)

O[C@H]1c2ccccc2C[C@]1(Cc1ccccc1)C1=Cc2ccccc2C1 (single isomer, unassigned) [Compound 9]
IL-2 [ ]pg/ml (1) ([1]; 0.3 uM): 111.72 pg/mL
IL-2 % Control (1) ([1]; 0.3 uM): 152.99%
IL-2 [ ]pg/ml (2) ([1]; 0.3 uM): 73.45 pg/mL
IL-2 % Control (2) ([1]; 0.3 uM): 112.48%
IL-2 [ ]pg/ml (3) ([1]; 0.3 uM): 139.63 pg/mL
IL-2 % Control (3) ([1]; 0.3 uM): 106.13%
IL-2 [ ]pg/ml (1) ([1]; 1 uM): 120.56 pg/mL
IL-2 % Control (1) ([1]; 1 uM): 165.09%
IL-2 [ ]pg/ml (2) ([1]; 1 uM): 65.45 pg/mL
IL-2 % Control (2) ([1]; 1 uM): 100.23%
IL-2 [ ]pg/ml (3) ([1]; 1 uM): 114.13 pg/mL
IL-2 % Control (3) ([1]; 1 uM): 86.75%
IL-2 [ ]pg/ml (1) ([1]; 3 uM): 78.78 pg/mL
IL-2 % Control (1) ([1]; 3 uM): 107.88%
IL-2 [ ]pg/ml (2) ([1]; 3 uM): 81.75 pg/mL
IL-2 % Control (2) ([1]; 3 uM): 59.11%
IL-2 [ ]pg/ml (3) ([1]; 3 uM): 53.47 pg/mL
IL-2 % Control (3) ([1]; 3 uM): 40.64%
IL-2 [ ]pg/ml (1) ([1]; 10 uM): 37.72 pg/mL
IL-2 % Control (1) ([1]; 10 uM): 51.66%
IL-2 [ ]pg/ml (2) ([1]; 10 uM): 85.60 pg/mL
IL-2 % Control (2) ([1]; 10 uM): 131.09%
IL-2 [ ]pg/ml (3) ([1]; 10 uM): 36.16 pg/mL
IL-2 % Control (3) ([1]; 10 uM): 27.48%
IL-2 [ ]pg/ml (1) ([1]; 30 uM): -4.56 pg/mL
IL-2 % Control (1) ([1]; 30 uM): −6.24%
IL-2 [ ]pg/ml (2) ([1]; 30 uM): 16.35 pg/mL
IL-2 % Control (2) ([1]; 30 uM): 25.04%
IL-2 [ ]pg/ml (3) ([1]; 30 uM): -3.88 pg/mL
IL-2 % Control (3) ([1]; 30 uM): −2.95%
IL-2 [ ]pg/ml (1) ([1]; 100 uM): -3.72 pg/mL
IL-2 % Control (1) ([1]; 100 uM): −5.10%
IL-2 [ ]pg/ml (2) ([1]; 100 uM): -5.75 pg/mL
IL-2 % Control (2) ([1]; 100 uM): −8.81%
IL-2 [ ]pg/ml (3) ([1]; 100 uM): -5.28 pg/mL
IL-2 % Control (3) ([1]; 100 uM): −4.01%
inhibition of DAI in DSS-induced colitis [2]: only the S,S-enantiomer 10 caused a significant
effect on DSS-induced weight loss [2]: not

O[C@@H]1c2ccccc2C[C@@]1(Cc1ccccc1)C1=Cc2ccccc2C1 (single isomer, unassigned) [Compound 10]
IL-2 [ ]pg/ml (1) ([1]; 0.3 uM): 79.17 pg/mL
IL-2 % Control (1) ([1]; 0.3 uM): 108.41%
IL-2 [ ]pg/ml (2) ([1]; 0.3 uM): 88.15 pg/mL
IL-2 % Control (2) ([1]; 0.3 uM): 134.99%
IL-2 [ ]pg/ml (3) ([1]; 0.3 uM): 58.63 pg/mL
IL-2 % Control (3) ([1]; 0.3 uM): 44.56%
IL-2 [ ]pg/ml (1) ([1]; 1 uM): 64.17 pg/mL
IL-2 % Control (1) ([1]; 1 uM): 87.87%
IL-2 [ ]pg/ml (2) ([1]; 1 uM): 57.50 pg/mL
IL-2 % Control (2) ([1]; 1 uM): 88.06%
IL-2 [ ]pg/ml (3) ([1]; 1 uM): 104.44 pg/mL
IL-2 % Control (3) ([1]; 1 uM): 79.39%
IL-2 [ ]pg/ml (1) ([1]; 3 uM): 71.39 pg/mL
IL-2 % Control (1) ([1]; 3 uM): 97.76%
IL-2 [ ]pg/ml (2) ([1]; 3 uM): 54.15 pg/mL
IL-2 % Control (2) ([1]; 3 uM): 82.92%
IL-2 [ ]pg/ml (3) ([1]; 3 uM): 100.50 pg/mL
IL-2 % Control (3) ([1]; 3 uM): 76.39%
IL-2 [ ]pg/ml (1) ([1]; 10 uM): 42.50 pg/mL
IL-2 % Control (1) ([1]; 10 uM): 58.20%
IL-2 [ ]pg/ml (2) ([1]; 10 uM): 45.60 pg/mL
IL-2 % Control (2) ([1]; 10 uM): 69.83%
IL-2 [ ]pg/ml (3) ([1]; 10 uM): 80.25 pg/mL
IL-2 % Control (3) ([1]; 10 uM): 61.00%
IL-2 [ ]pg/ml (1) ([1]; 30 uM): 14.17 pg/mL
IL-2 % Control (1) ([1]; 30 uM): 19.40%
IL-2 [ ]pg/ml (2) ([1]; 30 uM): 56.70 pg/mL
IL-2 % Control (2) ([1]; 30 uM): 86.83%
IL-2 [ ]pg/ml (3) ([1]; 30 uM): 46.06 pg/mL
IL-2 % Control (3) ([1]; 30 uM): 35.01%
IL-2 [ ]pg/ml (1) ([1]; 100 uM): -11.33 pg/mL
IL-2 % Control (1) ([1]; 100 uM): −15.52%
IL-2 [ ]pg/ml (2) ([1]; 100 uM): -6.30 pg/mL
IL-2 % Control (2) ([1]; 100 uM): −9.65%
IL-2 [ ]pg/ml (3) ([1]; 100 uM): -0.78 pg/mL
IL-2 % Control (3) ([1]; 100 uM): −0.59%
inhibition of DAI in DSS-induced colitis [2]: significant (P<0.0059) inhibition
effect on DSS-induced weight loss [2]: ameliorated
disease activity index (DAI) ([2]; day 7, mean±SEM, vehicle control 6.833±1.276): 2.333±0.211

Source: patent US20150141523A1, “COMPOUNDS FOR USE IN THE TREATMENT OF AUTOIMMUNE INFLAMMATORY DISEASE” (Venantius Limited, priority 2012, published 2015)
